Laboratory results reported in the supplement of paper PMC10307832.

Legend:
Assay in all cases: relative viability (nuclei count vs DMSO), 5 days (fraction); higher = more cells survive
[1] = compound: C/C(=N\NC(=S)N1CCC1)/C2=CC=CC=N2 + Nc1nc2[nH]cc(CCc3ccc(C(=O)N[C@@H](CCC(=O)O)C(=O)O)cc3)c2c(=O)[nH]1 [Pemetrexed] (partner 0.2 µM)
Summary of the method: (§1)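 Cells from lung cancer lines were seeded into 1536-well plates and, one day later, dosed by pin tool. Treatments were either a single drug or a fixed dose of an anchor drug with five library-drug doses (not always all listed) in √10 steps. After 5 days, nuclei were stained in a one-step fixation (final 0.05% Triton X-100, 1% formaldehyde, 1 ug/ml Hoechst) and counted on 4× images, and relative viability is the treated-to-vehicle nuclei ratio, as the median of duplicate plates.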

[2] = compound: C/C(=N\NC(=S)N1CCC1)/C2=CC=CC=N2 + COc1cccc2cc(-c3nc([C@H]4CC[C@H](C(=O)O)CC4)n4ncnc(N)c34)[nH]c12 [OSI-027] (partner 0.5 µM)
Summary of the method: as §1

[3] = compound: C/C(=N\NC(=S)N1CCC1)/C2=CC=CC=N2 + COc1cc2c(Oc3ccc(NC(=O)C4(C(=O)Nc5ccc(F)cc5)CC4)cc3F)ccnc2cc1OCCCN1CCOCC1 [Foretinib] (partner 0.25 µM)
Summary of the method: as §1

[4] = compound: C/C(=N\NC(=S)N1CCC1)/C2=CC=CC=N2 + NC(=O)Nc1cc(-c2cccc(F)c2)sc1C(=O)N[C@H]1CCCNC1 [AZD7762] (partner 0.2 µM)
Summary of the method: as §1

Cell Line | relative viability ([1]; first compound 0.05 µM) | relative viability ([1]; first compound 0.1581 µM) | relative viability ([1]; first compound 0.5 µM) | relative viability ([1]; first compound 1.581 µM) | relative viability ([1]; first compound 5 µM) | relative viability ([2]; first compound 0.05 µM) | relative viability ([2]; first compound 0.1581 µM) | relative viability ([2]; first compound 0.5 µM) | relative viability ([2]; first compound 1.581 µM) | relative viability ([2]; first compound 5 µM) | relative viability ([3]; first compound 0.05 µM) | relative viability ([3]; first compound 0.1581 µM) | relative viability ([3]; first compound 0.5 µM) | relative viability ([3]; first compound 1.581 µM) | relative viability ([3]; first compound 5 µM) | relative viability ([4]; first compound 0.05 µM) | relative viability ([4]; first compound 0.1581 µM) | relative viability ([4]; first compound 0.5 µM) | relative viability ([4]; first compound 1.581 µM) | relative viability ([4]; first compound 5 µM)
COR-L 105 | 0.399 | 0.389 | 0.326 | 0.358 | 0.335 | 0.251 | 0.329 | 0.338 | 0.255 | 0.248 | 0.33 | 0.312 | 0.382 | 0.233 | 0.268 | – | – | – | – | –
LK-2 | 0.0705 | 0.123 | 0.0631 | 0.1 | 0.0756 | 0.141 | 0.174 | 0.177 | 0.167 | 0.142 | 0.134 | 0.183 | 0.202 | 0.133 | 0.146 | 0.0945 | 0.0875 | 0.049 | 0.086 | 0.0796
NCI-H727 | – | – | – | – | – | 0.229 | 0.258 | 0.289 | 0.244 | 0.364 | 0.225 | 0.231 | 0.227 | 0.227 | 0.22 | 0.265 | 0.249 | 0.311 | 0.228 | 0.312
RERF-LC-KJ | 0.211 | 0.231 | 0.235 | 0.191 | 0.222 | 0.266 | 0.258 | 0.251 | 0.221 | 0.243 | 0.292 | 0.261 | 0.297 | 0.28 | 0.259 | 0.176 | 0.238 | 0.18 | 0.16 | 0.208
NCI-H2023 | 0.0924 | 0.0863 | 0.0863 | 0.0559 | 0.0883 | 0.0569 | 0.0687 | 0.0687 | 0.0508 | 0.0603 | 0.0821 | 0.0789 | 0.0763 | 0.0636 | 0.077 | – | – | – | – | –
NCI-H322M | 0.327 | 0.391 | 0.556 | 0.327 | 0.404 | 0.325 | 0.351 | 0.321 | 0.288 | 0.337 | 0.282 | 0.32 | 0.31 | 0.295 | 0.336 | 0.316 | 0.333 | 0.381 | 0.37 | 0.414
NCI-H1666 | 0.532 | 0.638 | 0.54 | 0.442 | 0.473 | 0.396 | 0.41 | 0.383 | 0.354 | 0.358 | 0.439 | 0.365 | 0.345 | 0.348 | 0.331 | 0.304 | 0.398 | 0.352 | 0.3 | 0.331
NCI-H1648 | 0.258 | 0.323 | 0.329 | 0.274 | 0.311 | 0.309 | 0.279 | 0.351 | 0.314 | 0.307 | – | – | – | – | – | 0.337 | 0.305 | 0.269 | 0.288 | 0.297
NCI-H2087 | 0.16 | 0.181 | 0.214 | 0.163 | 0.119 | 0.132 | 0.14 | 0.143 | 0.122 | 0.0904 | 0.185 | 0.178 | 0.193 | 0.15 | 0.121 | 0.193 | 0.16 | 0.249 | 0.118 | 0.15
LU99A | 0.192 | 0.158 | 0.164 | 0.146 | 0.162 | 0.186 | 0.182 | 0.161 | 0.162 | 0.177 | 0.276 | 0.189 | 0.181 | 0.186 | 0.189 | 0.153 | 0.12 | 0.125 | 0.107 | 0.14
HCC-366 | 0.0318 | 0.0443 | 0.0286 | 0.0295 | 0.0319 | 0.0452 | 0.0275 | 0.0339 | 0.0481 | 0.0279 | 0.127 | 0.346 | 0.0579 | 0.0562 | 0.0285 | 0.0319 | 0.0257 | 0.0217 | 0.0308 | 0.0241
EKVX | 0.148 | 0.163 | 0.0961 | 0.166 | 0.175 | 0.12 | 0.122 | 0.11 | 0.111 | 0.146 | 0.0957 | 0.192 | 0.118 | 0.104 | 0.984 | 0.106 | 0.115 | 0.128 | 0.14 | 0.143
NCI-H522 | 0.243 | 0.299 | 0.284 | 0.352 | 0.364 | – | 0.341 | 0.495 | – | 0.561 | – | – | – | – | – | 0.307 | 0.279 | 0.24 | 0.292 | 0.397
NCI-H1755 | 0.394 | 0.302 | 0.273 | 0.31 | 0.292 | 0.292 | 0.288 | 0.287 | 0.273 | 0.228 | 0.518 | 0.35 | 0.283 | 0.268 | 0.258 | 0.357 | 0.262 | 0.253 | 0.256 | 0.292
NCI-H647 | 0.136 | 0.111 | 0.114 | 0.0953 | 0.0773 | 0.0818 | 0.107 | 0.109 | 0.117 | 0.0913 | 0.128 | 0.0812 | 0.172 | 0.132 | 0.105 | 0.0396 | 0.0606 | 0.048 | 0.0361 | 0.0379
LC-2-ad | 0.202 | 0.218 | 0.217 | 0.217 | 0.192 | 0.282 | 0.295 | 0.277 | 0.179 | 0.227 | 0.225 | 0.309 | 0.267 | 0.227 | 0.235 | 0.212 | 0.202 | 0.182 | 0.165 | 0.163
NCI-H1793 | 0.158 | 0.162 | 0.151 | 0.112 | 0.136 | 0.128 | 0.176 | 0.159 | 0.153 | 0.142 | 0.229 | 0.382 | 0.157 | 0.143 | 0.188 | 0.129 | 0.199 | 0.104 | 0.116 | 0.142
